Where two headings read alike, the source gives them in different places.
Tests used:
[1] = Pharmacokinetics test in Balb/C mice; format: in vivo; details: male, mouse, po, p.o. 5 mg/kg, plasma; for AUC(0-t): read-out: Curve area AUC0−t; for Cmax: read-out: Drug concentration in plasma Cmax; for Tmax: read-out: Peak time tmax; for MRT inf: read-out: Average residence time MRT0−∞; for half-life: read-out: Half life t1/2 (converted)
Procedure: Test Embodiment 6. Pharmacokinetics Test in Balb/C Mice
Taking Balb/C mice as the test animals, the pharmacokinetic behavior in the plasma of mice of the following compound embodiments was studied when orally administered at a dose of 5 mg/kg.
Balb/C Mouse 6/embodiment, male, Shanghai Jisijie Laboratory Animal Co., Ltd., animal production license number (SCXK (Shanghai) 2013-0006 No. 311620400001794).
0.5% HPMC (1% Tween 80), dissolved by sonication, to prepare a clear solution or a homogeneous suspension.
Balb/C mice, male; p.o. after overnight fasting, respectively, at a dose of 5 mg/kg, administered in a volume of 10 mL/kg.
Before and after administration of mice, at 0, 0.5, 1, 2, 4, 6, 8 and 24 hours, 0.1 mL of blood was collected from the orbit, placed in an EDTA-K2 test tube, and centrifuged at 6000 rpm at 4° C. for 6 min to separate the plasma, stored at −80° C.
1) 40 μL of plasma samples were added to 160 μL of acetonitrile for precipitation, mixed and centrifuged at 3500×g for 5 to 20 minutes.
2) 100 μL of the supernatant solution after treatment was taken for LC/MS/MS to analyze the concentration of the compounds to be tested.
2.6 Liquid Phase Analysis • Liquid phase condition: Shimadzu LC-20AD pump • MS conditions: AB Sciex API 4000 Mass Spectrometer • Chromatographic column: phenomenex Gemiu 5 μm C18 50×4.6 mm • Mobile phase: A solution was aqueous 0.1% formic acid solution, B solution was acetonitrile • Flow rate: 0.8 mL/min • Elution time: 0 to 4.0 minutes, the eluent was as follows:
The main parameters of pharmacokinetics were calculated with WinNonlin 8.2, and the results of the mice pharmacokinetic experiments were shown in the following table: […]

[2] = biological target: T1, PD-L1 protein on the surface of MC38-hPDL1 tumor cells (Homo sapiens, UniProt Q9NZQ7); assay: Induction of endocytosis of PD-L1 on the surface of tumor cells (flow cytometry); format: cell-based; details: for Emax: MC38-hPDL1 cells, read-out: MC38 maximum endocytosis rate
T1 construct: expressed in transfected cells; host or cells: MC38-hPDL1 (mouse colon cancer cells)
Procedure, shortened: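 IC50 comes from nonlinear fits of endocytosis rate, calculated from the loss of surface PE-anti-CD274 flow signal relative to vehicle. Cells were MC38 mouse colon cancer cells engineered to express high human PD-L1. Compound exposure lasted 16 h at 37 °C, 5% CO2.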

[3] = test system: CHO-PDL1/Jurkat-PD1 cell pathway; assay: Inhibition of CHO-PDL1/Jurkat-PD1 cell pathway (NFAT luciferase reporter); format: cell-based; details: for EC50: 6 hours incubation, luciferase signal; for maximal fold induction: relative to the signal value of the non-dosed group, read-out: Maximum induction fold
Procedure, shortened: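 CHO-K1 cells stably expressing PD-L1, plated overnight, then co-cultured with PD-1/NFAT-luc2 Jurkat cells plus compounds in RPMI 1640 with 2% FBS for 6 h at 37 °C. Luminescence read after One-Glo, 10 min at RT. EC50 fitted from the concentration–signal curve; maximum induction fold calculated relative to the non-dosed group.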

[4] = inducing endocytosis of PD-L1, MC38-hPDL1 cells, 16 hours incubation, read-out: MC38 IC50

T1 sequence (Q9NZQ7 19-290): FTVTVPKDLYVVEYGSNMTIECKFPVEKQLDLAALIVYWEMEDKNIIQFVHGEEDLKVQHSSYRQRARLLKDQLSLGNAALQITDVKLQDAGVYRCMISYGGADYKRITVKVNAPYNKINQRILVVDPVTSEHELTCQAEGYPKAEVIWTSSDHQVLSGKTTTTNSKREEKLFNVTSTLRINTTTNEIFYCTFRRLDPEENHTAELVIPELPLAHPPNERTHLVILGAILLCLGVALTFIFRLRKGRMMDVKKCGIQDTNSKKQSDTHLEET

AUC(0-t) [1] [ng·h/mL]	Cmax [1] [ng/mL]	Tmax [1] [h]	Emax ([2]; 16 hours incubation) [%]	IC50 [2, 4] [nM]	MRT inf [1] [h]	half-life [1] [h]	SMILES	EC50 [3] [nM]	maximal fold induction [3]	IC50 [2] [nM]
1630	132	6	98	0.4	–	–	COc1nc(-c2cccc(-c3cccc(NC(=O)c4nc5c(n4C)CCN(C)C5)c3Cl)c2Cl)ccc1CN[C@H]1CCOC[C@@H]1O (relative stereo) [Embodiment 175, N-(2,2′-Dichloro-3′-(5-((((3,4-trans)-3-hydroxytetrahydro-2H-pyran-4-yl)amino)methyl)-6-methoxypyridin-2-yl)-[1,1′-biphenyl]-3-yl)-1,5-dimethyl-4,5,6,7-tetrahydro-1H-imidazo[4,5-c]pyridine-2-carboxamide]	86	3.6	–
–	–	–	97	0.9	–	–	COc1nc(-c2cccc(-c3cccc(NC(=O)c4nc5c(n4C)CCN(C)C5)c3Cl)c2Cl)ccc1CN1CC(O)(CO)C1 [Embodiment 173, N-(2,2′-Dichloro-3′-(5-((3-hydroxy-3-(hydroxymethyl)azetidin-1-yl)methyl)-6-methoxypyridin-2-yl)-[1,1-biphenyl]-3-yl)-1,5-dimethyl-4,5,6,7-tetrahydro-1H-imidazo[4,5-c]pyridine-2-carboxamide]	82	3.7	–
–	–	–	97	1	–	–	COc1nc(-c2cccc(-c3cccc(NC(=O)c4nc5c(n4C)CCN(C)C5)c3Cl)c2Cl)ccc1CNC(CO)CO [Embodiment 174, N-(2,2′-Dichloro-3′-(5-(((1,3-dihydroxypropan-2-yl)amino)methyl)-6-methoxypyridin-2-yl)-[1,1′-biphenyl]-3-yl)-1,5-dimethyl-4,5,6,7-tetrahydro-1H-imidazo[4,5-c]pyridine-2-carboxamide]	66	3.5	–
1190	75	6	95	–	16.8	10.9	COc1nc(-c2cccc(-c3cccc(NC(=O)c4nc5c(n4C)CCN(C)C5)c3Cl)c2Cl)ccc1CN1CC(C(=O)N(C)C)C1 [Embodiment 183, N-(2,2′-Dichloro-3′-(5-((3-(dimethylcarbamoyl)azetidin-1-yl)methyl)-6-methoxypyridin-2-yl)-[1,1′-biphenyl]-3-yl)-1,5-dimethyl-4,5,6,7-tetrahydro-1H-imidazo[4,5-c]pyridine-2-carboxamide]	–	–	–
–	–	–	97	0.3	–	–	COc1nc(-c2cccc(-c3cccc(NC(=O)c4nc5c(n4C)CCN(C)C5)c3Cl)c2Cl)ccc1CN1CC2(C1)CN(S(C)(=O)=O)C2 [Embodiment 192]	85	3.8	–
–	–	–	95	–	–	–	COc1nc(-c2cccc(-c3cccc(NC(=O)c4nc5c(n4C)CCN(C)C5)c3Cl)c2Cl)cnc1CN1CC(NC(C)=O)C1 [Embodiment 218, N-(3′-(5-((3-Acetylaminoazetidin-1-yl)methyl)-6-methoxypyrazin-2-yl)-2,2′-dichloro-[1,1′-biphenyl]-3-yl)-1,5-dimethyl-4,5,6,7-tetrahydro-1H-imidazo[4,5-c]pyridine-2-carboxamide]	54	2.8	–
1920	–	2	93	–	10.6	9.2	COc1nc(-c2cccc(-c3cccc(NC(=O)c4nc5c(n4C)CCN(C)C5)c3Cl)c2Cl)ncc1CN1CC(CNC(C)=O)C1 [Embodiment 225, N-(3′-(5-((3-(Acetylaminomethyl)azetidin-1-yl)methyl)-4-methoxypyrimidin-2-yl)-2,2′-dichloro-[1,1′-biphenyl]-3-yl)-1,5-dimethyl-4,5,6,7-tetrahydro-1H-imidazo[4,5-c]pyridine-2-carboxamide]	–	–	–

The next lines start with the compound.

SMILES	AUC(0-t) [1] [ng·h/mL]	Cmax [1] [ng/mL]	Tmax [1] [h]	Emax ([2]; 16 hours incubation) [%]	IC50 [2, 4] [nM]	MRT inf [1] [h]	half-life [1] [h]	EC50 [3] [nM]	maximal fold induction [3]	IC50 [2] [nM]
CNC(=O)CNCc1cnc(C(=O)Nc2cccc(-c3cccc(NC(=O)c4nc5c(n4C)CCN(C)C5)c3Cl)c2C)cc1OC [Embodiment 95, N-(2-Chloro-3′-(4-methoxy-5-(((2-(methylamino)-2-carbonylethyl)amino)methyl)picolinamido)-2′-methyl-[1,1′-biphenyl]-3-yl)-1,5-dimethyl-4,5,6,7-tetrahydro-1H-imidazo[4,5-c]pyridine-2-carboxamide]	–	–	–	94	2.3	–	–	94	3.8	–
COc1nc(-c2cccc(-c3cccc(NC(=O)c4nc5c(n4C)CCN(C)C5)c3Cl)c2Cl)ccc1CNC1COC1 [Embodiment 114, N-(2,2′-Dichloro-3′-(6-methoxy-5-((oxetan-3-ylamino)methyl)pyridin-2-yl)-[1,1′-biphenyl]-3-yl)-1,5-dimethyl-4,5,6,7-tetrahydro-1H-imidazo[4,5-c]pyridine-2-carboxamide]	596	48	2	95	1.2	11.3	9	–	–	–
COc1nc(-c2cccc(-c3cccc(NC(=O)c4nc5c(n4C)CCN(C)C5)c3Cl)c2Cl)ccc1CN1CC(F)C1 [Embodiment 120, N-(2,2′-Dichloro-3′-(5-((3-fluoroazetidin-1-yl)methyl)-6-methoxypyridin-2-yl)-[1,1′-biphenyl]-3-yl)-1,5-dimethyl-4,5,6,7-tetrahydro-1H-imidazo[4,5-c]pyridine-2-carboxamide]	500	34	2	95	1.2	17	12	70	3.2	–
COc1nc(-c2cccc(-c3cccc(NC(=O)c4nc5c(n4C)CCN(C)C5)c3Cl)c2Cl)ccc1CN1CC2(C1)CN(C(C)=O)C2 [Embodiment 123, N-(3′-(5-((6-Acetyl-2,6-diazaspiro[3.3]heptan-2-yl)methyl)-6-methoxypyridin-2-yl)-2,2′-dichloro-[1,1′-biphenyl]-3-yl)-1,5-dimethyl-4,5,6,7-tetrahydro-1H-imidazo[4,5-c]pyridine-2-carboxamide]	778	59	4	97	0.4	12.8	6.7	27	3.4	–
COc1nc(-c2cccc(-c3cccc(NC(=O)c4nc5c(n4C)CCN(C)C5)c3Cl)c2Cl)ccc1CN1CC2(COC2)C1 [Embodiment 124, N-(3′-(5-((2-Oxa-6-azaspiro[3.3]heptan-6-yl)methyl)-6-methoxypyridin-2-yl)-2,2′-dichloro-[1,1′-biphenyl]-3-yl)-1,5-dimethyl-4,5,6,7-tetrahydro-1H-imidazo[4,5-c]pyridine-2-carboxamide]	523	36	4	96	0.4	25	20	–	–	–
COc1nc(-c2cccc(-c3cccc(NC(=O)c4nc5c(n4C)CCN(C)C5)c3Cl)c2Cl)ccc1CNC[C@H](C)O [Embodiment 127, (S)—N-(2,2′-Dichloro-3′-(5-(((2-hydroxypropyl)amino)methyl)-6-methoxypyridin-2-yl)-[1,1′-biphenyl]-3-yl)-1,5-dimethyl-4,5,6,7-tetrahydro-1H-imidazo[4,5-c]pyridine-2-carboxamide]	743	37	6	97	0.7	69	47	–	–	–
CCC(=O)N1CC2(CN(Cc3ccc(-c4cccc(-c5cccc(NC(=O)c6nc7c(n6C)CCN(C)C7)c5Cl)c4Cl)nc3OC)C2)C1 [Embodiment 188, N-(2,2′-Dichloro-3′-(6-methoxy-5-((6-propionyl-2,6-diazaspiro[3.3]heptan-2-yl)methyl)pyridin-2-yl)-[1,1′-biphenyl]-3-yl)-1,5-dimethyl-4,5,6,7-tetrahydro-1H-imidazo[4,5-c]pyridine-2-carboxamide]	–	–	–	97	–	–	–	93	3.8	0.4

Source: patent US20230105212A1, “BIPHENYL DERIVATIVE INHIBITOR, PREPARATION METHOD THEREFOR AND USE THEREOF” (SHANGHAI HANSOH BIOMEDICAL CO., LTD., priority 2020, published 2023)
